Source: ChEMBL document CHEMBL1137072, “Peptide deformylase inhibitors with activity against respiratory tract pathogens” (Bioorg Med Chem Lett, 2004)
Values after ≈ are worked out from the molar mass of the structure shown. Values joined by “and” are separate entries in the source; they are usually repeats but may differ in a detail not shown here. Equal values may be shown once. Each block holds one compound with its values, some of them ahead of it.

Tests used:
Moraxella catarrhalis [1] = assay: Minimum inhibitory concentration required for primary screening against in-house strain of Moraxella catarrhalis tested in vitro; Range- 0.125-0.25; format: functional
Haemophilus influenzae [2] = assay: Minimum inhibitory concentration required for primary screening against in-house strain of Haemophilus influenzae tested in vitro; Range- 2-4; format: functional
Peptide deformylase = molecular target: T1, Peptide deformylase (Escherichia coli, UniProt Q9JN24); assay: Inhibitory activity against Escherichia coli peptide deformylase (PDF) Nickel containing enzyme
T1 sequence (Q9JN24 whole entry): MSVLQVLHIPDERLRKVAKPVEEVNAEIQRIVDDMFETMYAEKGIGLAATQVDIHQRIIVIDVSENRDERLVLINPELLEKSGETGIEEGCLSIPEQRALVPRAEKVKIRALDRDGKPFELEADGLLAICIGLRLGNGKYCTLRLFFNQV

Streptococcus pneumoniae [3] = assay: Minimum inhibitory concentration required for primary screening against in-house strain of Streptococcus pneumoniae tested in vitro; Range- 0.25-1; format: functional
Haemophilus influenzae [4] = assay: Minimum inhibitory concentration required for primary screening against in-house strain of Haemophilus influenzae tested in vitro; Range- 0.125-2; format: functional
Moraxella catarrhalis [5] = assay: Minimum inhibitory concentration required for primary screening against in-house strain of Moraxella catarrhalis tested in vitro; format: functional
Streptococcus pneumoniae [6] = assay: Minimum inhibitory concentration required for primary screening against in-house strain of Streptococcus pneumoniae tested in vitro; format: functional
Escherichia coli = assay: Minimum inhibitory concentration required for primary screening against in-house strain of Escherichia coli tested in vitro; format: functional
Staphylococcus capitis = assay: Minimum inhibitory concentration required for primary screening against in-house strain of Staphylococcus capitis tested in vitro; format: functional
Haemophilus influenzae [7] = assay: Minimum inhibitory concentration required for primary screening against in-house strain of Haemophilus influenzae tested in vitro; Range- 0.5-1; format: functional
Streptococcus pneumoniae [8] = assay: Minimum inhibitory concentration required for primary screening against in-house strain of Streptococcus pneumoniae tested in vitro; Range- 0.25-2; format: functional
Moraxella catarrhalis [9] = assay: Minimum inhibitory concentration required for primary screening against in-house strain of Moraxella catarrhalis tested in vitro; Range- 0.015-0.12; format: functional
Streptococcus pneumoniae [10] = assay: Minimum inhibitory concentration required for primary screening against in-house strain of Streptococcus pneumoniae tested in vitro; Range- 0.25-0.5; format: functional
Haemophilus influenzae [11] = assay: Minimum inhibitory concentration required for primary screening against in-house strain of Haemophilus influenzae tested in vitro; Range- 0.06->/=16; format: functional
Haemophilus influenzae [12] = assay: Minimum inhibitory concentration required for primary screening against in-house strain of Haemophilus influenzae tested in vitro; Range- 0.125-4; format: functional
Haemophilus influenzae [13] = assay: Minimum inhibitory concentration required for primary screening against in-house strain of Haemophilus influenzae tested in vitro; Range- 0.5-2; format: functional
Streptococcus pneumoniae [14] = assay: Minimum inhibitory concentration required for primary screening against in-house strain of Streptococcus pneumoniae tested in vitro; Range- 0.25-0.5
Moraxella catarrhalis [15] = assay: Minimum inhibitory concentration required for primary screening against in-house strain of Moraxella catarrhalis tested in vitro; Range = 0.015-0.12; format: functional
Streptococcus pneumoniae [16] = assay: Minimum inhibitory concentration required for primary screening against in-house strain of Streptococcus pneumoniae tested in vitro; Range- 2->8; format: functional
Haemophilus influenzae [17] = assay: Minimum inhibitory concentration required for primary screening against in-house strain of Haemophilus influenzae tested in vitro; Range- 0.06-8; format: functional
Haemophilus influenzae [18] = assay: microbe, parasite or virus in culture
Description: Minimum inhibitory concentration required for primary screening against in-house strain of Haemophilus influenzae tested in vitro; Range- 0.004-1

Streptococcus pneumoniae [19] = assay: microbe, parasite or virus in culture
Description: Minimum inhibitory concentration required for primary screening against in-house strain of Streptococcus pneumoniae tested in vitro; Range- 0.2-128

Moraxella catarrhalis [20] = assay: microbe, parasite or virus in culture
Streptococcus pneumoniae [21] = assay: Minimum inhibitory concentration required for primary screening against in-house strain of Streptococcus pneumoniae tested in vitro; Range-0.008-2; format: functional

Compound: CC(C)(C)[C@H](NC(=O)[C@H](CC1CCCC1)CN(O)C=O)C(=O)c1cc(F)c(F)cc1N1CCN(CCN2CCOCC2)CC1
- MIC (Moraxella catarrhalis [1]): < 0.25 µg/mL
- MIC (Haemophilus influenzae [2]): < 4 µg/mL
- IC50 (Peptide deformylase): 2 nM
- MIC (Streptococcus pneumoniae [3]): < 1 µg/mL

Compound: CC(C)(C)[C@H](NC(=O)[C@H](CC1CCCC1)CN(O)C=O)C(=O)c1ccc(N2CCC[C@H]2CO)c(F)c1
- MIC (Haemophilus influenzae [4]): < 2 µg/mL
- MIC (Moraxella catarrhalis [5]): < 0.125 µg/mL
- MIC (Streptococcus pneumoniae [6]): 0.25 µg/mL (≈ 0.494 µM)
- IC50 (Peptide deformylase): 2 nM

Compound: CC(C)(C)[C@H](NC(=O)[C@H](CC1CCCC1)CN(O)C=O)C(=O)c1ccc(N2CCOCC2)cc1
- MIC (Escherichia coli): 12.5 µM (≈ 5.92 µg/mL)
- MIC (Staphylococcus capitis): 1.5 µM (≈ 0.71 µg/mL)
- MIC (Moraxella catarrhalis [5]): 0.125 µg/mL (≈ 0.264 µM)
- MIC (Haemophilus influenzae [7]): < 1 µg/mL
- MIC90 (Streptococcus pneumoniae [8]): < 2 µg/mL
- MIC90 (Moraxella catarrhalis [9]): 0.12 µg/mL (≈ 0.253 µM)
- MIC (Streptococcus pneumoniae [10]): < 0.5 µg/mL
- IC50 (Peptide deformylase): 6 nM and 2 nM
- MIC90 (Haemophilus influenzae [11]): 4 µg/mL (≈ 8.45 µM)

Compound: CC(C)(C)[C@H](NC(=O)[C@H](CC1CCCC1)CN(O)C=O)C(=O)c1ccc(N2CCN(CCN3CCOCC3)CC2)c(F)c1
- MIC (Moraxella catarrhalis [5]): 0.125 µg/mL (≈ 0.207 µM)
- MIC (Streptococcus pneumoniae [10]): < 0.5 µg/mL
- MIC (Haemophilus influenzae [12]): < 4 µg/mL
- IC50 (Peptide deformylase): 6 nM

Compound: CC(C)(C)[C@H](NC(=O)[C@H](CC1CCCC1)CN(O)C=O)C(=O)c1ccc(N2CCN(CCN3CCCC3)CC2)cc1
- MIC (Moraxella catarrhalis [1]): < 0.25 µg/mL
- MIC (Haemophilus influenzae [13]): < 2 µg/mL
- IC50 (Peptide deformylase): 3 nM
- MIC (Streptococcus pneumoniae [14]): < 0.5 µg/mL

Compound: CCCC[C@H](CN(O)C=O)C(=O)N[C@H](C(=O)c1ccc(C#N)cc1)C(C)(C)C
- MIC (Escherichia coli): 6.25 µM (≈ 2.42 µg/mL)
- MIC (Staphylococcus capitis): 3.1 µM (≈ 1.2 µg/mL)
- IC50 (Peptide deformylase): 7 nM

Compound: CCCC[C@H](CN(O)C=O)C(=O)N[C@H](C(=O)c1ccc(NC(=O)C(F)(F)F)cc1)C(C)(C)C
- IC50 (Peptide deformylase): 20 nM

- MIC90 (Moraxella catarrhalis [15]): 0.12 µg/mL (≈ 0.364 µM)
- MIC90 (Streptococcus pneumoniae [16]): > 16 µg/mL
- MIC90 (Haemophilus influenzae [17]): 2 µg/mL (≈ 6.07 µM)
Compound: CCCC[C@H](CN(O)C=O)C(=O)N[C@H](C(=O)N(C)C)C(C)(C)C

- MIC (Escherichia coli): 25 µM (≈ 7.51 µg/mL)
- MIC (Staphylococcus capitis): 100 µM (≈ 30 µg/mL)
Compound: CCCC[C@H](CN(O)C=O)C(=O)N[C@H](C(C)=O)C(C)(C)C

Compound: O=C(O)c1cn(C2CC2)c2cc(N3CCNCC3)c(F)cc2c1=O [CIPROFLOXACIN]
- MIC90 (Haemophilus influenzae [18]): 0.015 µg/mL (≈ 0.0453 µM)
- MIC90 (Streptococcus pneumoniae [19]): 8 µg/mL (≈ 24.1 µM)
- MIC90 (Moraxella catarrhalis [20]): 0.06 µg/mL (≈ 0.181 µM)

- MIC90 (Streptococcus pneumoniae [21]): 1 µg/mL
Compound: CC1(C)S[C@@H]2[C@H](NC(=O)Cc3ccccc3)C(=O)N2[C@H]1C(=O)[O-].[Na+] [PENICILLIN G SODIUM]
